Data: the NIST ThermoML archive (doi:10.1016/j.jct.2018.06.015)

Assay: xn = mol fraction of the nth substance listed
Conditions: 100 kPa, Liquid; for speed of sound: Frequency=3 MHz, Single path-length method; for mass density: Vibrating tube method

CCCCOCCOCCO [3,6-dioxa-1-decanol] + CCCCCCCCO
Conditions | mass density, 293.15 K [kg/m3] | mass density, 298.15 K [kg/m3] | mass density, 303.15 K [kg/m3] | mass density, 308.15 K [kg/m3] | mass density, 313.15 K [kg/m3] | speed of sound, 293.15 K [m/s] | speed of sound, 298.15 K [m/s] | speed of sound, 303.15 K [m/s] | speed of sound, 308.15 K [m/s] | speed of sound, 313.15 K [m/s]
x1 = 0.0518 | 832.225 | 828.746 | 825.244 | 821.725 | 818.179 | 1364.4 | 1347.4 | 1330.7 | 1313.9 | 1297.4
x1 = 0.1019 | 838.886 | 835.371 | 831.834 | 828.281 | 824.7 | 1363.4 | 1346.4 | 1329.7 | 1313 | 1296.4
x1 = 0.1605 | 846.645 | 843.087 | 839.508 | 835.909 | 832.289 | 1362.8 | 1345.8 | 1329.1 | 1312.5 | 1296
x1 = 0.1994 | 851.754 | 848.167 | 844.558 | 840.932 | 837.284 | 1362.4 | 1345.5 | 1328.8 | 1312.1 | 1295.6
x1 = 0.2503 | 858.438 | 854.812 | 851.169 | 847.507 | 843.826 | 1362.1 | 1345.3 | 1328.5 | 1311.9 | 1295.5
x1 = 0.303 | 865.322 | 861.66 | 857.975 | 854.271 | 850.554 | 1362 | 1345.2 | 1328.5 | 1311.9 | 1295.4
x1 = 0.4013 | 878.059 | 874.317 | 870.565 | 866.793 | 863.012 | 1362.5 | 1345.7 | 1329 | 1312.4 | 1296
x1 = 0.4999 | 890.695 | 886.882 | 883.058 | 879.218 | 875.365 | 1363.2 | 1346.4 | 1329.7 | 1313.1 | 1296.7
x1 = 0.5918 | 902.338 | 898.456 | 894.568 | 890.661 | 886.747 | 1364.5 | 1347.6 | 1330.9 | 1314.3 | 1297.8
x1 = 0.7043 | 916.351 | 912.393 | 908.423 | 904.44 | 900.454 | 1366.7 | 1349.8 | 1333.1 | 1316.5 | 1299.9
x1 = 0.8085 | 929.131 | 925.094 | 921.053 | 916.997 | 912.939 | 1369.4 | 1352.4 | 1335.7 | 1319 | 1302.5
x1 = 0.848 | 933.965 | 929.901 | 925.834 | 921.75 | 917.662 | 1370.8 | 1353.8 | 1336.8 | 1320.1 | 1303.6
x1 = 0.901 | 940.359 | 936.257 | 932.151 | 928.029 | 923.906 | 1373 | 1356 | 1339.2 | 1322.4 | 1305.8
x1 = 0.9501 | 946.262 | 942.124 | 937.981 | 933.818 | 929.657 | 1374.3 | 1357.3 | 1340.4 | 1323.7 | 1307
x1 = 1 | 952.288 | 948.1 | 943.909 | 939.704 | 935.503 | 1378.2 | 1361.3 | 1344.5 | 1326.4 | 1307.7

CCCCOCCOCCO [3,6-dioxa-1-decanol] + CCCCCCO
Conditions | mass density, 293.15 K [kg/m3] | mass density, 298.15 K [kg/m3] | mass density, 303.15 K [kg/m3] | mass density, 308.15 K [kg/m3] | mass density, 313.15 K [kg/m3] | speed of sound, 293.15 K [m/s] | speed of sound, 298.15 K [m/s] | speed of sound, 303.15 K [m/s] | speed of sound, 308.15 K [m/s] | speed of sound, 313.15 K [m/s]
x1 = 0.0612 | 830.032 | 826.42 | 822.781 | 819.109 | 815.428 | 1323.2 | 1306.7 | 1289.7 | 1273.2 | 1256.6
x1 = 0.1016 | 836.858 | 833.209 | 829.539 | 825.839 | 822.126 | 1325.7 | 1309 | 1292.1 | 1275.4 | 1259.1
x1 = 0.1593 | 846.323 | 842.636 | 838.928 | 835.192 | 831.439 | 1329.1 | 1312.2 | 1295.4 | 1278.6 | 1262.3
x1 = 0.2053 | 853.619 | 849.892 | 846.155 | 842.384 | 838.617 | 1331.8 | 1314.9 | 1298.2 | 1281.3 | 1265
x1 = 0.251 | 860.647 | 856.892 | 853.123 | 849.323 | 845.516 | 1334.4 | 1317.5 | 1301 | 1283.8 | 1267.6
x1 = 0.3095 | 869.401 | 865.605 | 861.792 | 857.954 | 854.105 | 1337.5 | 1320.9 | 1304.2 | 1287.1 | 1271.2
x1 = 0.4054 | 883.079 | 879.224 | 875.359 | 871.465 | 867.564 | 1343.2 | 1326.3 | 1309.8 | 1292.4 | 1276.4
x1 = 0.5021 | 896.077 | 892.169 | 888.244 | 884.294 | 880.34 | 1348.5 | 1331.7 | 1314.9 | 1297.7 | 1281.6
x1 = 0.6049 | 909.164 | 905.192 | 901.21 | 897.205 | 893.199 | 1354.2 | 1337.5 | 1320.8 | 1303.3 | 1287.3
x1 = 0.6982 | 920.378 | 916.352 | 912.316 | 908.259 | 904.202 | 1359.8 | 1342.7 | 1326.1 | 1308.4 | 1292.7
x1 = 0.801 | 931.924 | 927.842 | 923.754 | 919.65 | 915.548 | 1365.5 | 1348.7 | 1331.8 | 1314.2 | 1298.2
x1 = 0.8313 | 935.198 | 931.096 | 926.99 | 922.874 | 918.76 | 1367.2 | 1350.3 | 1333.3 | 1315.8 | 1299.6
x1 = 0.9042 | 942.783 | 938.65 | 934.516 | 930.365 | 926.213 | 1372.5 | 1354.8 | 1338.3 | 1320.2 | 1304.8
x1 = 1 | 952.288 | 948.1 | 943.909 | 939.704 | 935.503 | 1378.2 | 1361.3 | 1344.5 | 1326.4 | 1307.7
